Test results reported in patent US9604974B2, “Compounds as modulator of JAK-STAT pathway, methods and applications thereof” (UNIVERSITY OF MYSORE, priority 2015, dated 2017).

Experiments:
phospho-STAT3 (Ser-727) = assay: Western blot of phospho-STAT3 (Ser-727) in HepG2; format: cell-based, human; details: HepG2, 10 μMol/L CIMO
Protocol: FIG. 2 depicts the suppression of phospho-STAT3 by compound 1 (CIMO) in a dose dependent manner [A]. HepG2 cells (5×10^5/mL) are treated with the indicated concentrations of CIMO for 6 hours, after which whole-cell extracts are prepared and resolved on SDS-PAGE gel, electrotransferred onto nitrocellulose membrane, and probed for phospho-STAT3. The same blot is stripped and reprobed with STAT3 antibody to verify equal protein loading. […] HepG2 cells (5×10^5/mL) are treated with the indicated concentrations of AG490 for about 6 hours, after which Western Blotting is done as described for [A]. [C] depicts the suppression of phospho-STAT3 levels by Compound 1 (CIMO) in a time-dependent manner. HepG2 cells (5×10^5/mL) are treated with 10 μMol/L CIMO for the indicated times, after which Western blotting is done as described for [A]. [D] depicts that compound 1 (CIMO) has no effect on phospho-STAT3 (Ser-727) and STAT3 protein expression. […] HepG2 cells (1×10^5/mL) are incubated with or without 10 μMol/L CIMO for about 6 hours and then analyzed for the intracellular distribution of STAT3 by immunocytochemistry. The same slides are counterstained for nuclei with Hoechst (50 ng/mL) for about 5 minutes and analyzed under an fluorescencemicroscope. […]

[1] = tested on: Bcl-2, Bcl-xL, Survivin, ICAM-1, Bid, Cyclin D1, Bak; assay: Western blot of STAT3-regulated gene products; format: cell-based, human; details: HepG2, 10 μMol/L CIMO
Protocol: FIG. 3 depicts comparative study of cell viability between STAT3-siRNA transfected and Compound 1 (CIMO) treated HepG2 cells [A]. Correspondingly, Western Blot analysis is used to assess the levels of phospho-STAT3 and STAT3 in HepG2 cells with siRNA-mediated depletion STAT3 expression and on exposure to 4 μM CIMO. Whole cell extract is prepared and resolved on SDS-PAGE gel, electrotransferred onto nitrocellulose membrane, and probed for phospho-STAT3 and the same blot is stripped and reprobed with STAT3 antibody and Beta actin to verify equal protein loading. [B] showcases the modulation of STAT3 mediated transcription, α2-M promoter activity by Compound 1 (CIMO) in HepG2 cells. [C] depicts the inhibition of IL-6-induced phosphorylation of STAT3, JAK1 and JAK2 by Compound 1 (CIMO). Hep3B cells (5×10^5/mL) are treated with 10 μMol/L CIMO for the indicated times and then stimulated with IL-6 (10 ng/mL) for about 15 minutes. Whole-cell extracts are then prepared, resolved on SDS-PAGE gel, electrotransferred onto nitrocellulose membrane and probed with phospho-STAT3, phospho-JAK1 and phospho-JAK2 antibodies. The same blot is stripped and reprobed with STAT3, JAK1 and JAK2 antibody to verify equal protein loading. [D] and [E], showcases the suppression of STAT3 regulated gene products involved in cell proliferation and survival by Compound 1 (CIMO). […]
To detect STAT3-regulated proteins and PARP, cells (2×10^6/ml) are treated with CIMO for the indicated times as shown in respective FIGS. 3E, 3D and 4A. […] Whole-cell extract protein (30 μg) is resolved on SDS-PAGE, electrotransferred onto a nitrocellulose membrane, blotted with antibodies against survivin, Bcl-2, Bcl-xL, cyclin D1, Bak, Bid, ICAM-1, procaspase-3, and PARP and then detected by chemiluminescence (ECL; GE Healthcare, Little Chalfont, Buckinghamshire, UK).

SHP-1, SHPTP-2, PTP1B = assay: Western blot of tyrosine phosphatase expression; format: cell-based, human; details: HepG2, CIMO up to 4 hours
[2] = tested on: DU145 (prostrate cancer cell line); assay: MTT anti-proliferative assay, DU145; format: cell-based; details: Homo sapiens, DU-145
Protocol: The anti-proliferative activity of Formula I compounds are studied on HepG2 cells using MTT assay. Briefly, the cells (2.5×10^4/ml) are incubated in triplicate in a 96-well plate in the presence or absence of different concentrations of compounds in a final volume of 0.2 ml up to 72 hours at 37° C. Thereafter, 20 μl MTT solution (5 mg/ml in PBS) is added to each well. After 2 hours of incubation at 37° C., 0.1 ml lysis buffer (20% SDS, 50% dimethyl-formamide) is added; incubation is continued overnight at 37° C.; and the optical density (OD) at 570 nm is measured by Tecan plate reader.
Additionally, Compound 1 is tested on a panel of six cell lines including Hep3B, PLC/PRF5, AGS (gastric cancer cell line), DU145 (prostrate cancer cell line), MDA MB231 (breast cancer cell line) and CAL27 (head and neck cancer cell line) cells.

IC50 [2]: 38.8 µM
Structure (SMILES): COc1ccc(C2CNC(c3cn(Cc4ccc(-c5ccccc5C#N)cc4)c4ccccc34)OC23CCCCC3)cc1 (stereo not drawn) [Compound 1]
phosphorylation of S727 of STAT3 (phospho-STAT3 (Ser-727)): no effect
expression of Bcl-2, Bcl-xL, Survivin, ICAM-1, Bid and Cyclin D1 [1]: Down-regulation
time of maximum activity on Bak expression [1]: 36 h
expression of pro-apoptotic protein Bak ([1]; time-dependent): upregulation
levels of SHP-1, SHPTP-2, PTP1B (SHP-1, SHPTP-2, PTP1B): no change
